A short description of experiment [1]: Lipid (liposome) solubilization, turbidimetric method. Format: biochemical. How it is done: As noted above, the other important parameter was phospholipid solubilization. A turbidimetric method is used to determine the solubilization capacity of peptides of the present invention. First, a three-fold serial titration of the peptide is prepared in a polypropylene v-shaped 96-well plate. The eight-point titration is done in phosphate-buffered saline (PBS, pH 7.5) or DMSO from a starting concentration that allows for addition to an optically-clear bottomed assay plate in <100 μl aliquots to yield a starting concentration of 500 μM in 200 μl final well volume. PBS is then added to each well to bring the total volume to 100 μl. Any bubbles in the wells must be dispersed to avoid erroneous results. Next, from a turbid but homogeneous emulsion of dimyristoyl phosphatidylcholine at 0.5 mg/ml in PBS, 100 μl is added to each well in the assay plate, the plate is inserted into the NEPHELOSTAR (BMG LABTECH INSTRUMENTS), and readings are taken immediately and every 15 minutes over 2 hours.
A true 0-point value is calculated by averaging the readings of the wells with phospholipid but no peptide. For each peptide concentration, a percent decrease in turbidity is calculated by subtracting the 0-point value from the corresponding 30 and 120 minute readings and dividing by that 0-point value. Finally the EC50 values for both time points are determined using PRISM software (Table 2).

Experiment [2] has as its target T1, ABCA1 cholesterol transporter protein (Mus musculus, UniProt P41233).
T1 construct: endogenous in cells
As to the kind of experiment: ABCA1-dependent cholesterol efflux from RAW mouse macrophage cells (in vitro RCT assay). In kind it is cell-based. The text has this: Peptides of the present invention were designed based on amphipathic properties and their abilities to solubilize phospholipids and promote cholesterol efflux. The most direct functional measurement of efficacy for the ApoA-1 peptide mimetic is its capacity to improve the efflux of cholesterol from the cell. The RAW and J774 cell lines are reliable mouse macrophage cell lines frequently used in the art for this purpose. […] The RAW cell line is preferred and recited in the description below.
In the present assay, the RAW cells are plated at 1.5×10^5 cells/200 μl/well/48-well plate in DMEM complete medium (with 10% FBS from INVITROGEN and 1% penicillin-streptomycin-glutamine from GIBCO) and ^3H-cholesterol at 5 μCi/ml. After 24 hours incubation in a moist 37° C. atmosphere with 5% CO2, the spent medium is removed, the cells are washed once with serum-free DMEM (0.1% fatty acid free bovine serum albumin replaces the FBS), and fresh serum-free medium (200 μl) is added to each well. After overnight incubation in the serum-free medium to allow the cellular cholesterol pools to equilibrate, the spent medium is removed, and fresh serum-free medium is added with/without CPT-cAMP (150 μM final). Eight-point serial titrations of the peptide/s being tested are added at this time (duplicate titrations in plain medium without cAMP and duplicate titrations in medium containing cAMP).
After 24 hours incubation in the various conditions, the medium is harvested from each well and 50 μl aliquots are counted. The cells are then lysed by adding 500 μl of HEPES/Triton lysis buffer to each well. The lysis is facilitated by freezing and thawing once. After thawing, the lysates are mixed well and 50 μl aliquots are counted.
The percent efflux of each peptide in each medium condition (±cAMP) is calculated by dividing the total counts in the medium by the sum of the total counts in the medium and lysate. The percent efflux seen with plain medium is subtracted from the percent efflux seen with the cAMP-stimulated efflux to yield the reported ABCA1-stimulated values. EC50 values are determined using PRISM software (Table 2).

Setting [3] is: read-out: IC50 in the liposome solubilization assay.
Setting [4] is: read-out: ABCA1-DEPENDENT CHOLESTEROL EFFLUX EC50.

Like-named read-outs stand apart in the source and are kept apart here. *1 amine or outer side, *2 acyl side, *3 side chain or, on linkers, in order; H or OH if unused. Where a SMILES comes first, the peptide text is derived from it. Bridges are numbered along the chain shown (N, C = ends). Where no end group is shown, it is not given here. [ ]: non-standard residue; d: D form. S6H = (2S)-2-aminooct-7-enoic acid, C=CCCCC[C@H](N[*:1])C(=O)[*:2]; R5Me = hydrocarbon side chain-substituted amino acid; dNle(6-ylidene) = O=C([C@@H](CCCC=[*:3])N[*:1])[*:2]; dGly(6-heptenyl) = C=CCCCCC[C@@H](N)C(=O)O; Ala(5-hexenyl) = C=CCCCCC[C@H](N)C(=O)O; dNle(6-vinyl) = C=CCCCC[C@@H](N)C(=O)O; Gla = N[C@@H](CC(C(=O)O)C(=O)O)C(=O)O

T1 sequence (P41233 whole entry): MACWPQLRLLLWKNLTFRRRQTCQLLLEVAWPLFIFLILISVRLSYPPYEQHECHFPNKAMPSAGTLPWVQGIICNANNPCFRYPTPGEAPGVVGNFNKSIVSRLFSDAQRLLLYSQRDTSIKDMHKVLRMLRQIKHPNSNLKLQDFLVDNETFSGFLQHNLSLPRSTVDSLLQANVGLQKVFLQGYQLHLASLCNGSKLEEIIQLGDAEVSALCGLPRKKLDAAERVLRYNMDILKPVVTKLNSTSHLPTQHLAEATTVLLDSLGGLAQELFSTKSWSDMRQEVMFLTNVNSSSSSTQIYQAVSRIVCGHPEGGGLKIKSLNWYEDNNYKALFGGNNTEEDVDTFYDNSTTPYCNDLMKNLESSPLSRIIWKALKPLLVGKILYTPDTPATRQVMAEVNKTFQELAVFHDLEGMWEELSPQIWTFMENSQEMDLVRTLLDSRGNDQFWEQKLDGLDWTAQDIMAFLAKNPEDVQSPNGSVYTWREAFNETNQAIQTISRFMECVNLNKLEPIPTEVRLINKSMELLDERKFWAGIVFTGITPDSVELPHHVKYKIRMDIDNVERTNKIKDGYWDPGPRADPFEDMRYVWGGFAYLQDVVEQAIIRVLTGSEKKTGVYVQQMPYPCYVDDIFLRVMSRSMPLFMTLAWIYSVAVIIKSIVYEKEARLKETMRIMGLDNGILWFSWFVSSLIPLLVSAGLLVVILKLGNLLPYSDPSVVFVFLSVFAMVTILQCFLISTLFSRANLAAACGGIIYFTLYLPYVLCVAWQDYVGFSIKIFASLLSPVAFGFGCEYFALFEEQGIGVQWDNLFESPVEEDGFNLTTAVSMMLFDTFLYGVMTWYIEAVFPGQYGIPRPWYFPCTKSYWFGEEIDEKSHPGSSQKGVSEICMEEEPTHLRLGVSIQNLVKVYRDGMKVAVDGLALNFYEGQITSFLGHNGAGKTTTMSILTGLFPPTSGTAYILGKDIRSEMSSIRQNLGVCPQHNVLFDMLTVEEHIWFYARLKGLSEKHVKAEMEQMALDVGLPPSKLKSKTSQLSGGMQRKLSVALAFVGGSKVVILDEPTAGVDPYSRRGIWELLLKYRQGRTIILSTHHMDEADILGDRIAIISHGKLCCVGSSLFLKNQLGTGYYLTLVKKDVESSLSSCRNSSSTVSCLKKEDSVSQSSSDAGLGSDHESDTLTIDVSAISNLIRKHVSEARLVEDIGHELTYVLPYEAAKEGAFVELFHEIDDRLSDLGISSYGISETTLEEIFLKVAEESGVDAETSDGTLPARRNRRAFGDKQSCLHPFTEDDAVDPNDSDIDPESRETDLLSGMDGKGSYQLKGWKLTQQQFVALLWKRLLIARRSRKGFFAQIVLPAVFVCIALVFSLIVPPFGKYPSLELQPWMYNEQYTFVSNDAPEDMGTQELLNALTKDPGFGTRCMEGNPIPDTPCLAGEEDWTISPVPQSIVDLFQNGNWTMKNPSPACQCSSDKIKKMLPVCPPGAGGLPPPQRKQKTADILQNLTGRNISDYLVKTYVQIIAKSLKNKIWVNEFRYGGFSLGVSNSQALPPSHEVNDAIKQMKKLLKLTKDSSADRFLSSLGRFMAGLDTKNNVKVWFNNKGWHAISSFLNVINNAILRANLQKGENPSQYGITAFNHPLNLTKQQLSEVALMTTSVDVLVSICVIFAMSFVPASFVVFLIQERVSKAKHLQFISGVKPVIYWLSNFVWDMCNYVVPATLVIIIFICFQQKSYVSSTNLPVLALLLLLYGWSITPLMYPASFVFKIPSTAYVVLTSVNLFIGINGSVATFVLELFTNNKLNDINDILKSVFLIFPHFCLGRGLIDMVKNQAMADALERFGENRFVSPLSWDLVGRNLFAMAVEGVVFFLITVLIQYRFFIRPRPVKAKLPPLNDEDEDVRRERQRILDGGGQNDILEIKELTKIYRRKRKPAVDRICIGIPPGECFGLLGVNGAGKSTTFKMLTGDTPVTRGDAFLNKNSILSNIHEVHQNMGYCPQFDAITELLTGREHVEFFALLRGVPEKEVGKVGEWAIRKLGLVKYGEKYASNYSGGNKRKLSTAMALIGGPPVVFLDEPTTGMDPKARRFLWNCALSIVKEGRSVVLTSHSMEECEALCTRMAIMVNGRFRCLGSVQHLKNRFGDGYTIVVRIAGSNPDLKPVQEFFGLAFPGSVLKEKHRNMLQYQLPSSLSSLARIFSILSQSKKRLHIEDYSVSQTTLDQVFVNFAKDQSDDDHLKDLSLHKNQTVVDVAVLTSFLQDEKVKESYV

Turning to “16 (Ac-PVLDEFRE[R5Me]LNE[R5Me]LEALKQKLK; not fully specified (C-terminus)) [compound 16]”, the IC50 (usually the concentration that gives 50% inhibition) in experiment [1] (Measured at 2 h, read-out: LIPID SOLUBILIZATION IC50) worked out at 24 µM. With `C=CCCC[C@@H](NC(=O)[C@H](CCC(=O)O)NC(=O)[C@H](CC(N)=O)NC(=O)[C@H](CC(C)C)NC(=O)[C@@H](CCCC=C)NC(=O)[C@H](CCC(=O)O)NC(=O)[C@H](CCCNC(=N)N)NC(=O)[C@H](Cc1ccccc1)NC(=O)[C@H](CCC(=O)O)NC(=O)[C@H](CC(=O)O)NC(=O)[C@H](CC(C)C)NC(=O)[C@@H](NC(=O)[C@@H]1CCCN1C(C)=O)C(C)C)C(=O)N[C@@H](CC(C)C)C(=O)N[C@@H](CCC(=O)O)C(=O)N[C@@H](C)C(=O)N[C@@H](CC(C)C)C(=O)N[C@@H](CCCCN)C(=O)N[C@@H](CCC(N)=O)C(=O)N[C@@H](CCCCN)C(=O)N[C@@H](CC(C)C)C(=O)N[C@@H](CCCCN)C(N)=O` [SEQ ID NO 9, PVLDEFRER5HLNER5HLEALKQKLK] (Ac-PVLDEFRE[dNle(6-ylidene)]LNE[dNle(6-ylidene)]LEALKQKLK-NH2; C-terminus assumed), the concentration for half-maximal inhibition (IC50) in experiment [1] (setting [3]) came out at 91 µM.

Regarding `C=CCCCCC[C@H](NC(=O)[C@H](CCC(=O)O)NC(=O)[C@H](CC(N)=O)NC(=O)[C@H](CC(C)C)NC(=O)[C@H](CCCCN)NC(=O)[C@H](CCC(=O)O)NC(=O)[C@H](CCCNC(=N)N)NC(=O)[C@@H](CCCCC=C)NC(=O)[C@H](CCC(=O)O)NC(=O)[C@H](CC(=O)O)NC(=O)[C@H](CC(C)C)NC(=O)[C@@H](NC(=O)[C@@H]1CCCN1C(C)=O)C(C)C)C(=O)N[C@@H](CC(C)C)C(=O)N[C@@H](CCC(=O)O)C(=O)N[C@@H](C)C(=O)N[C@@H](CC(C)C)C(=O)N[C@@H](CCCCN)C(=O)N[C@@H](CCC(N)=O)C(=O)N[C@@H](CCCCN)C(=O)N[C@@H](CC(C)C)C(=O)N[C@@H](CCCCN)C(N)=O` [SEQ ID NO 13, PVLDER6HREKLNES7HLEALKQKLK] (Ac-PVLDE[dNle(6-vinyl)]REKLNE[Ala(5-hexenyl)]LEALKQKLK-NH2; C-terminus assumed), in experiment [1] (setting [3]), the IC50 came to 25 µM. Same read-out and setting: the result for `C=CCCCC[C@@H](NC(=O)[C@H](CCC(=O)O)NC(=O)[C@H](CC(N)=O)NC(=O)[C@H](CC(C)C)NC(=O)[C@H](CCCCN)NC(=O)[C@H](CCC(=O)O)NC(=O)[C@H](CCCNC(=N)N)NC(=O)[C@H](Cc1ccccc1)NC(=O)[C@H](CCC(=O)O)NC(=O)[C@H](CC(=O)O)NC(=O)[C@H](CC(C)C)NC(=O)[C@@H](NC(=O)[C@@H]1CCCN1C(C)=O)C(C)C)C(=O)N[C@@H](CC(C)C)C(=O)N[C@@H](CCC(=O)O)C(=O)N[C@@H](C)C(=O)N[C@@H](CC(C)C)C(=O)N[C@@H](CCCCN)C(=O)N[C@@H](CCC(N)=O)C(=O)N[C@@H](CCCCN)C(=O)N[C@@H](CC(C)C)C(=O)N[C@@H](CCCCN)C(N)=O` [SEQ ID NO 18, PVLDEFREKLNER6HLEALKQKLK] (Ac-PVLDEFREKLNE[dNle(6-vinyl)]LEALKQKLK-NH2; C-terminus assumed) reads 32 µM. Consider `CC(=O)N1CCC[C@H]1C(=O)N[C@H](C(=O)N[C@@H](CC(C)C)C(=O)N[C@@H](CC(=O)O)C(=O)N[C@@H](CCC(=O)O)C(=O)N[C@@H](Cc1ccccc1)C(=O)N[C@@H](CCCNC(=N)N)C(=O)N[C@@H](CC(C(=O)O)C(=O)O)C(=O)N[C@@H](CCCCN)C(=O)N[C@@H](CC(C)C)C(=O)N[C@@H](CC(N)=O)C(=O)N[C@@H](CCC(=O)O)C(=O)N[C@@H](C)C(=O)N[C@@H](CC(C)C)C(=O)N[C@@H](CCC(=O)O)C(=O)N[C@@H](C)C(=O)N[C@@H](CC(C)C)C(=O)N[C@@H](CCCCN)C(=O)N[C@@H](CCC(N)=O)C(=O)N[C@@H](CCCCN)C(=O)N[C@@H](CC(C)C)C(=O)N[C@@H](CCCCN)C(N)=O)C(C)C` [compound 3] (Ac-PVLDEFR[Gla]KLNEALEALKQKLK-NH2; C-terminus assumed), for which the “LIPID SOLUBILIZATION IC50” value in experiment [1] (Measured at 2 h) is listed as “NOT ACTIVE”.

`C=CCCCCC[C@H](NC(=O)[C@H](CCC(=O)O)NC(=O)[C@H](CC(=O)O)NC(=O)[C@H](CC(C)C)NC(=O)[C@@H](NC(=O)[C@@H]1CCCN1C(C)=O)C(C)C)C(=O)N[C@@H](CCCNC(=N)N)C(=O)N[C@@H](CCC(=O)O)C(=O)N[C@@H](CCCCN)C(=O)N[C@@H](CC(C)C)C(=O)N[C@@H](CC(N)=O)C(=O)N[C@@H](CCC(=O)O)C(=O)N[C@H](CCCCC=C)C(=O)N[C@@H](CC(C)C)C(=O)N[C@@H](CCC(=O)O)C(=O)N[C@@H](C)C(=O)N[C@@H](CC(C)C)C(=O)N[C@@H](CCCCN)C(=O)N[C@@H](CCC(N)=O)C(=O)N[C@@H](CCCCN)C(=O)N[C@@H](CC(C)C)C(=O)N[C@@H](CCCCN)C(N)=O` [compound 10] (Ac-PVLDE[Ala(5-hexenyl)]REKLNE[dNle(6-vinyl)]LEALKQKLK-NH2; C-terminus assumed): the EC50 (as a rule, the concentration that produces a half-maximal response) in experiment [2] (setting [4]) was found to be 1.3 µM.

With `CC(=O)N1CCC[C@H]1C(=O)N[C@H](C(=O)N[C@@H](CC(C)C)C(=O)N[C@@H](CC(=O)O)C(=O)N[C@@H](CCC(=O)O)C(=O)N[C@@H](Cc1ccccc1)C(=O)N[C@@H](CCCNC(=N)N)C(=O)N[C@@H](CCC(=O)O)C(=O)N[C@@H]1CCCC=CCCC[C@H](C(=O)N[C@@H](CC(C)C)C(=O)N[C@@H](CCC(=O)O)C(=O)N[C@@H](C)C(=O)N[C@@H](CC(C)C)C(=O)N[C@@H](CCCCN)C(=O)N[C@@H](CCC(N)=O)C(=O)N[C@@H](CCCCN)C(=O)N[C@@H](CC(C)C)C(=O)N[C@@H](CCCCN)C(N)=O)NC(=O)[C@H](CCC(=O)O)NC(=O)[C@H](CC(N)=O)NC(=O)[C@H](CC(C)C)NC1=O)C(C)C` [compound 12] (Ac-PVLDEFRE[dNle(6-ylidene)]LNE[dNle(6-ylidene)]LEALKQKLK-NH2; staple 9-13; C-terminus assumed), the EC50 in experiment [2] (setting [4]) was 10 µM. Consider “Ac-PVLDEFREKLNE[Ala(5-hexenyl)]LEALKQKLKPVLDEFREKLNE[Ala(5-hexenyl)]LEALKQKLK-NH2 (C-terminus assumed) [SEQ ID NO 63]”, for which the EC50 in experiment [2] (read-out: EC50 in the cholesterol efflux assay (RCT in vitro assay)) came to 41 µM. Regarding “PR7HLDEFREKLNEELEALKQKLK (Ac-P[dGly(6-heptenyl)]LDEFREKLNEELEALKQKLK; not fully specified (C-terminus)) [SEQ ID NO 20]”, in experiment [2], the “activity in the cholesterol efflux / in vitro RCT assay, in words” value was “only slightly active”.

For “PS6HLDEFREKLNEELEALKQKLK (Ac-P[S6H]LDEFREKLNEELEALKQKLK; not fully specified (C-terminus)) [SEQ ID NO 23]”, the “activity in the cholesterol efflux / in vitro RCT assay, in words” value in experiment [2] is reported as “only slightly active”. Same read-out and setting: the result for “PVLDEFREKLNEELEALKQR7HLK (Ac-PVLDEFREKLNEELEALKQ[dGly(6-heptenyl)]LK; not fully specified (C-terminus); printed as PVLDEFREKLNEELEALKQR7HLK) [SEQ ID NO 22]” reads “only slightly active”; that for “PVLDEFREKLNEELEALKQS6HLK (Ac-PVLDEFREKLNEELEALKQ[S6H]LK; not fully specified (C-terminus); printed as PVLDEFREKLNEELEALKQS6HLK) [SEQ ID NO 25]”, “only slightly active”.

Source of the values: patent US20110046056A1, “APOA-1 PEPTIDE MIMETICS” (priority 2007, published 2011).
